Where “and” joins values, the source holds several entries; their conditions need not be identical. Identical values can stand only once. Like-named read-outs stand apart in the source and are kept apart here.
How the values were obtained:
[1] = biological target: K-Ras G12C(GMP-PNP) binding to BRAF RBD (Homo sapiens (Human), UniProt P01116+P62937, G12C); assay: Disruption of BRAF RBD interaction with K-Ras (FRET / MOA assay), K-Ras G12C; format: biochemical; conditions: read-out: KRAS G12C FRET IC50
In short: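 Compounds promote ternary complex of nucleotide-loaded Ras (here K-Ras G12C·GMP-PNP; other Ras mutants substituted) with cyclophilin A, disrupting BRAF RBD binding. 10-point 3-fold series from 30 μM final, 3 h at 25 °C, then anti-His Eu (10 nM) and anti-GST APC (50 nM) for 1.5 h. TR-FRET ratio decrease versus DMSO gave IC50.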

[2] = biological target: KRAS WT (Homo sapiens (Human), UniProt P01116+P62937); assay: Ras-Raf disruption/FRET/MOA assay (BRAF RBD, Cyclophilin A); format: biochemical; conditions: read-out: KRAS WT FRET data IC50
In short: (§1)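 Ras-GMPPNP (12.5 nM), BRAF RBD (50 nM) and 25 μM Cyclophilin A were incubated with compound for 3 h at 25° C, then detected 1.5 h with anti-His Eu and anti-GST APC; IC50 values follow from the reduced TR-FRET ratio.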

[3] = biological target: KRAS G13C (Homo sapiens (Human), UniProt P01116+P62937, G13C); assay: as above; format: biochemical; conditions: read-out: KRAS G13C FRET IC50
In short: as §1

[4] = biological target: KRAS G13D (Homo sapiens (Human), UniProt P01116+P62937, G13D); assay: as above; format: biochemical; conditions: read-out: KRAS G13D FRET data IC50
In short: as §1

[5] = biological target: KRAS G12D (Homo sapiens (Human), UniProt P01116+P62937, G12D); assay: as above; format: biochemical; conditions: read-out: KRAS G12D FRET IC50
In short: as §1

[6] = biological target: KRAS G12S (Homo sapiens (Human), UniProt P01116+P62937, G12S); assay: as above; format: biochemical; conditions: read-out: KRAS G12S FRET IC50
In short: as §1

[7] = biological target: KRAS G12V (Homo sapiens (Human), UniProt P01116+P62937, G12V); assay: as above; format: biochemical; conditions: read-out: KRAS G12V FRET IC50
In short: as §1

[8] = biological target: KRAS G12C (Homo sapiens (Human), UniProt P01116+P62937, G12C); assay: as above; format: biochemical; conditions: read-out: KRAS G12C FRET IC50
In short: as §1

[9] = biological target: NRAS G12C (Homo sapiens (Human), UniProt P01111+P62937, G12C); assay: as above; format: biochemical; conditions: read-out: NRAS G12C FRET data IC50
In short: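 TR-FRET readout: anti-His Eu-W1024 (10 nM) and anti-GST allophycocyanin (50 nM) added after 3 h, 25° C compound incubation, then 1.5 h more. Decrease in FRET ratio versus DMSO wells marks Ras:RAF disruption; IC50 reported.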

[10] = system: Capan-1 cells (K-Ras G12V); assay: CellTiter-Glo cell viability, Capan-1; format: cell-based, human; conditions: Homo sapiens, CAPAN-1, 120 h, read-out: Capan-1 Cell Viability IC50
In short: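 Compounds were dispensed directly onto seeded cells and incubated until day 5, then plates were equilibrated at room temperature for about 30 min before CellTiter-Glo luminescence readout. Signals were normalized as (sample/average DMSO)×100 and fitted with a four-parameter logistic model.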

Sequence of KRAS G12C (P01116-2 other isoform, or with tags, fused parts or gaps G12C): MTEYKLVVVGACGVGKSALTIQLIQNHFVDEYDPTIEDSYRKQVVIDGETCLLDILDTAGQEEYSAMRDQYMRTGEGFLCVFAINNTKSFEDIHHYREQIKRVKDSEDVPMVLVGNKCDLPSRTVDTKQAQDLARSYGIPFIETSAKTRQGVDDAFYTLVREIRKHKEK
Sequence of KRAS G12C (P62937 whole entry): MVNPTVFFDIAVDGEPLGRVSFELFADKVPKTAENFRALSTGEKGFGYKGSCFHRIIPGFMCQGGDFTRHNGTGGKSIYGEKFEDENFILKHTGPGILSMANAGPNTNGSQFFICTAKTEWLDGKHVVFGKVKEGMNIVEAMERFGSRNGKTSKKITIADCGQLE
Sequence of KRAS G12V (P01116 other isoform, or with tags, fused parts or gaps G12V): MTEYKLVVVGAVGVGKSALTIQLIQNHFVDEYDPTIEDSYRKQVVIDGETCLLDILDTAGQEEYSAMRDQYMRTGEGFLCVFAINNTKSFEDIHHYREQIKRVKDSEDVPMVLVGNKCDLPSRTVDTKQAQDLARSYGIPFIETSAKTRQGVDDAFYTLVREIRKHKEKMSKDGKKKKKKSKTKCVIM
Sequence of KRAS G12V (P62937 whole entry): as the sequence (P62937 whole entry) above
Sequence of KRAS G13C (P01116 other isoform, or with tags, fused parts or gaps G13C): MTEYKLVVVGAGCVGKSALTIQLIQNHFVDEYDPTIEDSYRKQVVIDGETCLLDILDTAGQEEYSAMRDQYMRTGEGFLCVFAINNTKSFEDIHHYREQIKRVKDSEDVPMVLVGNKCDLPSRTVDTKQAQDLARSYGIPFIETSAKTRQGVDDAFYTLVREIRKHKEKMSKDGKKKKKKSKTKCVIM
Sequence of KRAS G13C (P62937 whole entry): as the sequence (P62937 whole entry) above
Sequence of KRAS G12S (P01116 other isoform, or with tags, fused parts or gaps G12S): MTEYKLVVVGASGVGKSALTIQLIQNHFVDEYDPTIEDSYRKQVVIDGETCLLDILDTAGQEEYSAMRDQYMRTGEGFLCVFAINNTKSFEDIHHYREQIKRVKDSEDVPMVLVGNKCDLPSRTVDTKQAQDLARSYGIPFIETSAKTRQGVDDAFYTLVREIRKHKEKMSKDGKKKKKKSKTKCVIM
Sequence of KRAS G12S (P62937 whole entry): as the sequence (P62937 whole entry) above
Sequence of KRAS G13D (P01116 other isoform, or with tags, fused parts or gaps G13D): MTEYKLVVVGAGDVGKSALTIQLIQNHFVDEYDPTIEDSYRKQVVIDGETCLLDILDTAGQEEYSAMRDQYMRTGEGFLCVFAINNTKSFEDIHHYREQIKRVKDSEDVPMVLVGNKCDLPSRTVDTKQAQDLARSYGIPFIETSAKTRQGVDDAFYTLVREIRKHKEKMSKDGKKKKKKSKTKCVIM
Sequence of KRAS G13D (P62937 whole entry): as the sequence (P62937 whole entry) above
Sequence of KRAS WT (P01116 other isoform, or with tags, fused parts or gaps): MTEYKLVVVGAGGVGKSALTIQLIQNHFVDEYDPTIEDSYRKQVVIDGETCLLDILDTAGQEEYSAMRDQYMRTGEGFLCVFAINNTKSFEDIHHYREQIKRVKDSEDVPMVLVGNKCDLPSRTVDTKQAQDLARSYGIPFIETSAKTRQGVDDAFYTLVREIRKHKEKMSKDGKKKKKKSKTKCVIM
Sequence of KRAS WT (P62937 whole entry): as the sequence (P62937 whole entry) above
Sequence of NRAS G12C (P01111 whole entry G12C): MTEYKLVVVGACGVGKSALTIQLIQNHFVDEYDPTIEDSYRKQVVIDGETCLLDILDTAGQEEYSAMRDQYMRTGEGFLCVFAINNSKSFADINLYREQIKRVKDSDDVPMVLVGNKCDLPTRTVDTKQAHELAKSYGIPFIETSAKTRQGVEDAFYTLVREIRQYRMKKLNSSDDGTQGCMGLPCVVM
Sequence of NRAS G12C (P62937 whole entry): as the sequence (P62937 whole entry) above
Sequence of K-Ras G12C(GMP-PNP) binding to BRAF RBD (P01116 other isoform, or with tags, fused parts or gaps G12C): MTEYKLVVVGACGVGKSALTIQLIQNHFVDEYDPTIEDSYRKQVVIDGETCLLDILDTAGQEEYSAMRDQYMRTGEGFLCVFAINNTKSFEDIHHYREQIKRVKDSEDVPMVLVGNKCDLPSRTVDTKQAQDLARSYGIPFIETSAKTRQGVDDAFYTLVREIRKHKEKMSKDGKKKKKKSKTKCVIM
Sequence of K-Ras G12C(GMP-PNP) binding to BRAF RBD (P62937 whole entry): as the sequence (P62937 whole entry) above
Sequence of KRAS G12D (P01116 other isoform, or with tags, fused parts or gaps G12D): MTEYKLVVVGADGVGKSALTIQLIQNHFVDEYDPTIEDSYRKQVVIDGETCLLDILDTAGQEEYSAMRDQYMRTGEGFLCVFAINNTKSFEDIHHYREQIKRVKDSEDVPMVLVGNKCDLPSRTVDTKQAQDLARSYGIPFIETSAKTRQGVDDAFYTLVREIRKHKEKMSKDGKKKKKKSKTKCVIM
Sequence of KRAS G12D (P62937 whole entry): as the sequence (P62937 whole entry) above

Structure (SMILES) | IC50 [1] | IC50 [2] | IC50 [3] | IC50 [4] | IC50 [5] | IC50 [6] | IC50 [7] | IC50 [8] | IC50 [9] | IC50 ([10]; K-Ras G12V, 5-day treatment) | IC50 [10]
CCn1c(-c2cccnc2[C@H](C)OC)c2c3cc(ccc31)-c1cccc(c1)C[C@H](NC(=O)[C@H](C(C)C)N(C)C(=O)[C@H]1CCNC1)C(=O)N1CCC[C@H](N1)C(=O)OCC(C)(C)C2 [Compound A119] | 100 to 1000 nM | 1000 to 10000 nM | 100 to 1000 nM | 100 to 1000 nM | 1000 to 10000 nM | 100 to 1000 nM | > 10000 nM | 1000 to 10000 nM | 1000 to 10000 nM | > 10000 nM | 
CCn1c(-c2cccnc2[C@H](C)OC)c2c3cc(ccc31)-c1cc(O)cc(c1)C[C@H](NC(=O)C(=C(C)C)N(C)C(C)=O)C(=O)N1CCC[C@H](N1)C(=O)OCC(C)(C)C2 [Compound A142] | 10 to 100 nM | 1000 to 10000 nM | 100 to 1000 nM | 1000 to 10000 nM | > 10000 nM | 1000 to 10000 nM | 1000 to 10000 nM | 1000 to 10000 nM | 1000 to 10000 nM | > 10000 nM | 
CCn1c(-c2cccnc2[C@H](C)OC)c2c3cc(ccc31)-c1cc(O)cc(c1)C[C@H](NC(=O)[C@@H]1[C@H]3C[C@H]3CN1C(C)=O)C(=O)N1CCC[C@H](N1)C(=O)OCC(C)(C)C2 [Compound A207] | 10 to 100 nM | 1000 to 10000 nM | 100 to 1000 nM | 1000 to 10000 nM | > 10000 nM | 1000 to 10000 nM | 1000 to 10000 nM | 100 to 1000 nM | 1000 to 10000 nM | > 10000 nM | 
CCn1c(-c2cccnc2[C@H](C)OC)c2c3cc(ccc31)-c1csc(n1)C[C@H](NC(=O)[C@H](C(C)C)N(C)C(=O)[C@H]1CCN(S(C)(=O)=O)C1)C(=O)N1CCC[C@H](N1)C(=O)OCC(C)(C)C2 [Compound A237] | 10 to 100 nM | 1000 to 10000 nM | 1000 to 10000 nM | > 10000 nM | > 10000 nM | 1000 to 10000 nM | 1000 to 10000 nM | 1000 to 10000 nM | 1000 to 10000 nM |  | 1000 to 10000 nM
CCn1c(-c2cccnc2[C@H](C)OC)c2c3cc(ccc31)-c1cccc(c1)C[C@H](NC(=O)[C@H](C(C)C)N(C)C(=O)C1COC1)C(=O)N1CCC[C@H](N1)C(=O)OCC(C)(C)C2 [Compound A246] | < 10 nM | 1000 to 10000 nM | 1000 to 10000 nM | 1000 to 10000 nM | > 10000 nM | 1000 to 10000 nM | 1000 to 10000 nM | 1000 to 10000 nM | 1000 to 10000 nM | 1000 to 10000 nM | 
CCn1c(-c2cccnc2[C@H](C)OC)c2c3cc(ccc31)-c1cc(O)cc(c1)C[C@H](NC(=O)[C@H](C(C)C)N(C)C(=O)C1CC(=O)N(C3CC3)C1)C(=O)N1CCC[C@H](N1)C(=O)OCC(C)(C)C2 (stereo partly shown) [Compound A252] | 10 to 100 nM | 10 to 100 nM | 10 to 100 nM | 100 to 1000 nM and 10 to 100 nM | 100 to 1000 nM | 10 to 100 nM | 100 to 1000 nM and 10 to 100 nM | 10 to 100 nM | 10 to 100 nM | 100 to 1000 nM | 
CCn1c(-c2cnccc2COC)c2c3cc(ccc31)-c1cc(O)cc(c1)C[C@H](NC(=O)[C@H](C(C)C)N(C)C(=O)N1CCNCC1)C(=O)N1CCC[C@H](N1)C(=O)OCC(C)(C)C2 [Compound A255] | < 10 nM | 100 to 1000 nM | 10 to 100 nM | 10 to 100 nM | 100 to 1000 nM | 100 to 1000 nM | 100 to 1000 nM | 10 to 100 nM | 100 to 1000 nM | > 10000 nM | 
CCn1c(-c2cccnc2[C@H](C)OC)c2c3cc(ccc31)-c1csc(n1)C[C@H](NC(=O)[C@H](C(C)C)N(C)C(=O)N1C[C@H](C)N(C)C[C@H]1C)C(=O)N1CCC[C@H](N1)C(=O)OCC(C)(C)C2 [Compound A300] | < 10 nM | 1000 to 10000 nM | 1000 to 10000 nM | 1000 to 10000 nM | 1000 to 10000 nM | 1000 to 10000 nM | 1000 to 10000 nM | 1000 to 10000 nM | 1000 to 10000 nM | 1000 to 10000 nM | 
CCn1c(-c2cccnc2[C@H](C)OC)c2c3cc(ccc31)-c1cc(O)cc(c1)C[C@H](NC(=O)[C@@H]1[C@@H](C)CCCN1C(C)=O)C(=O)N1CCC[C@H](N1)C(=O)OCC(C)(C)C2 [Compound A324] | < 10 nM | 100 to 1000 nM | 10 to 100 nM | 100 to 1000 nM | 1000 to 10000 nM | 100 to 1000 nM | 100 to 1000 nM | 100 to 1000 nM | 100 to 1000 nM | 1000 to 10000 nM | 

More lines, main results first:

IC50 [1] | IC50 [2] | IC50 [3] | IC50 [4] | IC50 [5] | IC50 [6] | IC50 [7] | IC50 [8] | IC50 [9] | Structure (SMILES) | IC50 ([10]; K-Ras G12V, 5-day treatment) | IC50 [10]
< 10 nM | 1000 to 10000 nM | 100 to 1000 nM | 1000 to 10000 nM | 1000 to 10000 nM | 1000 to 10000 nM | > 10000 nM | 1000 to 10000 nM | 1000 to 10000 nM | CCn1c(-c2cccnc2[C@H](C)OC)c2c3cc(ccc31)-c1cc(O)cc(c1)C[C@H](NC(=O)[C@H](C(C)C)N(C)C(=O)[C@H]1CCN(C3CC3)C1)C(=O)N1CCC[C@H](N1)C(=O)OCC(C)(C)C2 [Compound A175] | 1000 to 10000 nM | 
10 to 100 nM and 100 to 1000 nM | 1000 to 10000 nM | 100 to 1000 nM | 1000 to 10000 nM | > 10000 nM | 1000 to 10000 nM | 1000 to 10000 nM | 1000 to 10000 nM | 1000 to 10000 nM | CCn1c(-c2cccnc2[C@H](C)OC)c2c3cc(ccc31)-c1cc(O)cc(c1)C[C@H](NC(=O)C1CCC3C1C3(F)F)C(=O)N1CCC[C@H](N1)C(=O)OCC(C)(C)C2 (stereo partly shown) [Compound A181] | > 10000 nM | 
< 10 nM | 10 to 100 nM | 100 to 1000 nM | 100 to 1000 nM | 100 to 1000 nM | 10 to 100 nM | 100 to 1000 nM | 10 to 100 nM | 10 to 100 nM | CCn1c(-c2cccnc2[C@H](C)OC)c2c3cc(ccc31)-c1csc(n1)C[C@H](NC(=O)[C@H](C(C)C)N(C)C(=O)N1CCN(C(C)=O)CC1)C(=O)N1CCC[C@H](N1)C(=O)OCC(C)(C)C2 [Compound A291] | 10 to 100 nM | 
10 to 100 nM | 100 to 1000 nM | 100 to 1000 nM | 100 to 1000 nM | 1000 to 10000 nM | 100 to 1000 nM | 100 to 1000 nM | 10 to 100 nM | 10 to 100 nM | CCn1c(-c2cccnc2[C@H](C)OC)c2c3cc(ccc31)-c1csc(n1)C[C@H](NC(=O)[C@H](C(C)C)N(C)C(=O)N1CC(N3CCOCC3)C1)C(=O)N1CCC[C@H](N1)C(=O)OCC(C)(C)C2 [Compound A338] | 10 to 100 nM | 
